The values that follow come from patent US10543160B2, “Cosmetic composition including water soluble scrub particles containing polypeptide and/or cell culture” (PAEAN AESTHETICS INC., priority 2015, dated 2020).

The subject of the assay is 3T3 fibroblasts. Put plainly: Measurement of EGF activities using 3T3 fibroblasts, corrected to NIBSC EGF standard product. In kind it is cell-based. The note with it: recombinant EGF of purity 90% or more. As to the method:
According to an embodiment of the present invention, the EGF may be an EGF which is prepared from a recombinant E. coli or a plant and is purified to a purity of 90% or more.

Regarding “epidermal growth factor [EGF, peptide of 6,200 Da with 53 amino acid residues, prepared from recombinant E. coli or a plant, purity 90% or more]”, the “EGF activity per mg” value is “one million”.
